{"source": "patent US10201175B2", "about": "“N-acylated 1-aminocycloalkyl carboxylic acids as food flavouring compounds” (Givaudan S.A., priority 2012, dated 2019)", "key": {"[1]": {"experiment": "Expert taster evaluation, test on Kikkoman soy sauce low salt", "details": "0.5 ppm in Kikkoman soy sauce low salt; salt level in application 0.3-1.0%", "description": "(§1) Samples were prepared and evaluated by expert tasters. Tasters were asked to describe the samples focusing on authentic taste, mouthfeel, fullness, salivation, salty-ness, umami, sweetness, juiciness, richness, long lastingness and fattiness.\nTest on Kikkoman soy sauce low salt\n(§2) Salt level pure product between 5-40%\n(§3) Salt level in application 0.3-1.0%"}, "[2]": {"experiment": "Expert taster evaluation, test in fish sauce", "details": "0.5 ppm in fish sauce; salt level in application 0.3-1.0%", "description": "as §1, §2, §3"}, "[3]": {"experiment": "Expert taster evaluation, test in mayonnaise", "details": "0.5 ppm in low fat mayonnaise (27% fat)", "description": "as §1\nFat levels between 10-80%\nLow fat Mayonnaise (27% Fat)"}, "[4]": {"experiment": "Expert taster evaluation, test in dressings", "details": "0.5 ppm in low fat salad dressing (13.6% fat)", "description": "as §1\nLow fat salad dressing (13.6% Fat)"}, "[5]": {"experiment": "Expert taster evaluation, test in soups and bouillons", "details": "0.7% salt, 0.5% fat", "description": "as §1\nTest in Soups and Bouillons\nStandard Chicken bouillon base"}, "[6]": {"experiment": "Expert taster evaluation, test in jus and fonds", "details": "40 ppb in beef jus", "description": "as §1"}, "[7]": {"experiment": "Expert taster evaluation, test in cheese (spreadable cheese ERU)", "details": "0.5 ppm in spreadable cheese ERU", "description": "as §1"}, "[8]": {"experiment": "Expert taster evaluation, test in cheese sauce", "details": "0.5 ppm in cheese sauce, 5% fat, 1.6% salt", "description": "as §1\nCheese sauce: 5% fat 1.6% salt"}}}
{"compound": "CCCCCCCC/C=C\\CCCCCCCC(=O)NC1(C(=O)O)CC1", "note": "[C18:1-ACCA, N-oleoyl 1-amino-cyclopropyl carboxylic acid]", "values": [{"measurement": "taste description by expert tasters", "setting": "[1]", "value": "Strong upfront saltiness lingering, very strong saltiness"}, {"measurement": "taste description by expert tasters", "setting": "[2]", "value": "Strong saltiness lingering, strong body mouthfeel"}, {"measurement": "taste description by expert tasters", "setting": "[3]", "value": "Nice balanced, full mouthfeel, increased eggyness"}, {"measurement": "taste description by expert tasters", "setting": "[4]", "value": "Increased mouthfeel body less acidic"}, {"measurement": "taste description by expert tasters", "setting": "[5]; 0.2 ppm in standard chicken bouillon base", "value": "Saltier, Stronger and more umami"}, {"measurement": "taste description by expert tasters", "setting": "[5]; 0.5 ppm in standard chicken bouillon base", "value": "More body and fatty notes, salivating and good aftertaste"}, {"measurement": "taste description by expert tasters", "setting": "[6]", "value": "more salty, fatty, total profile is enhanced"}, {"measurement": "taste description by expert tasters", "setting": "[7]", "value": "Strong umami, lingering cheese bite"}, {"measurement": "taste description by expert tasters", "setting": "[8]", "value": "Strong umami, cheese bite, expanding"}]}
